Results as given in patent publication US4431639A, “Adjuvant for stimulating production of lymphocytes” (priority 1979, dated 1984).
“Also recorded” adds a separate entry of the source.

Tested on: Sarcoma 180
Assay: Survival / recovery of mice after intraperitoneal inoculation of Sarcoma 180
Type: in vivo, mice (I.C.R.)
Conditions: for effectiveness against Sarcoma 180 compared with the extract of the natural herb: comparison in words; for effectiveness for treating mice inoculated with Sarcoma 180: in words
Method: White male mice (I.C.R.) weighing 16 to 18 g.
1 gm of the dried powder was dissolved in 160 ml of tap water and was put into the animal cages in place of the usual drinking water, so that the test mice ingested it ad libitum. […]
A large volume of ether extract from a powder of Rhizoma Atractylis alba was produced. Some definite weights of the ether extract were dissolved in small volumes of ethanol, and then diluted with water to obtain emulsions of ether extract/water of 1 mg/100 ml, 2 mg/100 ml, 3 mg/100 ml, 4 mg/100 ml and 5 mg/100 ml.
The emulsions were administered to I.C.R. male mice for one month as described in Example 4, and then the mice were inoculated with 200,000 cells of Sarcoma 180 intraperitoneally. The survival time of the inoculated mice was regressed to the concentration of ether extract administered. […]
Mandelic acid, mandelic acid isoamyl ester (Atractyl), mandelic acid methyl ester, mandelic acid ethyl ester and atrolactic acid were tested by the same procedure as described in Example 6.

Structure (SMILES) | effectiveness against Sarcoma 180 compared with the extract of the natural herb | effectiveness for treating mice inoculated with Sarcoma 180
CC(C)CCOC(=O)C(O)c1ccccc1 (stereo not shown) [Atractyl, mandelic acid isoamyl ester] | less effective than the extract from the natural herb; also recorded: significantly less than that of the extract of the natural herb | somewhat effective
O=C(O)C(O)c1ccccc1 (stereo not shown) [Mandelic acid] | less effective than the extract from the natural herb | somewhat effective
CC(O)(C(=O)O)c1ccccc1 (stereo not shown) [atrolactic acid] | less effective than the extract from the natural herb | somewhat effective
CCOC(=O)C(O)c1ccccc1 (stereo not shown) [mandelic acid ethyl ester] | less effective than the extract from the natural herb | somewhat effective
COC(=O)C(O)c1ccccc1 (stereo not shown) [mandelic acid methyl ester] | less effective than the extract from the natural herb | somewhat effective
